This note sets out measurements from article PMC9476787 (Chinese Herbal Medicines, 2020).

One test addresses yeast α-glucosidase. The test is described as follows: α-glucosidase inhibition assay. Type of test: biochemical. The conditions noted are these: read-out: IC50 α-Glucosidase; Table 2; mean ± SD, n = 3.
Test [1] addresses T1, PTP1B (human, recombinant) (Homo sapiens, UniProt P18031).
T1 sequence (P18031 1-435): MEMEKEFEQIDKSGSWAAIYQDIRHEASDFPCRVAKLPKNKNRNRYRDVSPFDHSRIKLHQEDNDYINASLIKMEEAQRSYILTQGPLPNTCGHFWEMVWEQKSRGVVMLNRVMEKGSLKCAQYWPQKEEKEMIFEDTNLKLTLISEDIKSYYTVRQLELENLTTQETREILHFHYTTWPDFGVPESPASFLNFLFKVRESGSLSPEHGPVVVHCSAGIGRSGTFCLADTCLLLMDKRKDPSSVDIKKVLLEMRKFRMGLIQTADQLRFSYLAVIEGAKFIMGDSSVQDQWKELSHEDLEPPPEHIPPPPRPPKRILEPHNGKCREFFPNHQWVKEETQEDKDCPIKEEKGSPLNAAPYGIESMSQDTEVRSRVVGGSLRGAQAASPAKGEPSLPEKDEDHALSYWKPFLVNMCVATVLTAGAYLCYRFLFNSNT
The test is described as follows: PTP1B inhibition assay. It is filed as biochemical.

As to `CC[C@H](CC[C@@H](C)[C@H]1CC[C@H]2[C@@H]3CC=C4C[C@@H](O)CC[C@]4(C)[C@H]3CC[C@]12C)C(C)C` [Compound 6, β-Sitosterol], the IC50 (usually the midpoint of a concentration-inhibition curve) is 69.41 ± 0.03 µM at yeast α-glucosidase and more than 100 µM in test [1].
With `CC1(C)CC[C@]2(C(=O)O)CC[C@]3(C)C(=CC[C@@H]4[C@@]5(C)CC[C@H](O)C(C)(C)[C@@H]5CC[C@]43C)[C@@H]2C1` [Compound 7, Oleanolic acid], the IC50 at yeast α-glucosidase turned out to be 41.04 ± 0.34 µM.
